Assay results as given in patent US9657017B2, “Crystal form of (R)-praziquantel and preparation method and application thereof” (TONGLI BIOMEDICAL CO., LTD., priority 2013, dated 2017).
≈ marks a conversion by molar mass, not a printed value. Like-named read-outs stand apart in the source and are kept apart here.

Legend:
[1] = rat, in vivo, po, 75 mg/kg
Text: Investigation on characteristic of the plasma concentrations of (R)-praziquantel crystal form in rats after oral administration, which was specifically as follow: […]

clonorchis sinensis = assay: In vivo anti-parasitic activity in SD rats infected with clonorchis sinensis
Method: Evaluation of in vivo anti-parasitic activity of (R)-praziquantel crystal form in SD rats infected with clonorchis sinensis, which was specifically as follow: Each of total 29 SD rats with 200˜300 g of body weight were given with 30 metacercariae of clonorchis sinensis via gavage intragastrically. On Day 35 post infection, fecal smear examination was conducted, and worm eggs of clonorchis sinensis were found in all of the smears which confirmed successful modeling. Subsequently, the rats were randomly divided into (R)-praziquantel group (n=14) and blank control group (n=15). […] Seven days after the end of the treatment, worms are recovered from the bile ducts under sterility condition. The averaged number of recovered worms, mean recovery rate of worms and cure rate after treatment were calculated, and the results are shown in Table 5.

schistosoma japonicum = assay: In vitro culture anti-schistosoma japonicum activity (worm activity inhibition); type: cell-based; details: for IC50: spasm or paralysis of schistosoma japonicum considered as active, in vitro culture 37° C., read-out: IC50 ± L95 (median inhibitory concentration, 95% confidence interval)
Method: Comparison of anti-schistosoma japonicum activity between the crystal forms of (R)-praziquantel and praziquantel in in vitro culture experiment, which was specifically as follow: […] An aliquot of the drug solution (5-50 μL) was transferred and diluted with culture medium (prepared by Tyrode's solution and calf serum at 9:1, pH 7.4, containing 100 IU/mL penicillin and 100 IU/mL streptomycin) to a desired concentration (0.0001-100 μg/mL). Japanese white rabbits and Kunming hybrid mice were infected with cercariae of schistosoma japonicum for 5-8 weeks. Under aseptic condition, mesenteric vein and liver were perfused with normal saline, and the recovered schistosomes were washed with Tyrode's solution twice and then transferred into culture medium and cultured at 37° C. for use. […] The worm activity and changes on body surface were observed under stereomicroscope and inverted microscope at room temperature. The active levels of worm were defined as below: • ++++ Worm twitching or rolling intensively; • +++ Worm wriggling or paroxysmally trembling frequently; • ++ Worm migrating freely with enterocinesia; • + Movement of worm weakened and enterocinesia disappeared; • ± No movement of worm was observed under stereomicroscope (×30), and slight movement of mouth and ventral suckers were observed under inverted microscope (×250); • − No movement of worm was observed under inverted microscope (×250); • wherein +++ and ++++ refer to worm excitement; ++ refers to normal worm activity; + and ± refers to inhibition of worm activity; worm was considered to death if the result was still negative after observing for 5 min.

[2] = Solubility of crystal forms in water and simulated gastric-intestinal fluid; type: physicochemical; details: 25° C.; for solubility at 18 h: thermodynamic from solid
Method: About 2 mg of each compound was respectively placed in several glass vials, and pure water, simulated gastric fluid (SGF), simulated intestinal fluid under fasted status (FaSSIF), and simulated intestinal fluid under fed status (FeSSIF) were respectively added to prepare a final sample concentration of 2 mg/mL. The samples were sonicated to be dispersed evenly and then rotated 360 degree-wise to equilibrate for 18 hours at room temperature (25° C.). After the equilibration, the samples were visually inspected to check whether they were completely dissolved, and then filtrated through […] filter membrane. The resulted filtrate was diluted with suitable solvent for HPLC analysis.

[3] = 100 mg/kg gavage twice a day for two days

Row | area under plasma concentration-time curve [1] | peak plasma concentration [1] | time to reach peak plasma concentration [1] | IC50 relative to that of praziquantel crystal form (schistosoma japonicum; in vitro culture, P<0.01) | IC50 (schistosoma japonicum) | Average solubility ([2]; FaSSIF (simulated intestinal fluid, fasted), equilibrated 18 hours) | Average solubility ([2]; FeSSIF (simulated intestinal fluid, fed), equilibrated 18 hours) | Average solubility ([2]; SGF (simulated gastric fluid), equilibrated 18 hours) | Average solubility ([2]; Water, equilibrated 18 hours) | solubility at 18 h ([2]; FaSSIF (simulated intestinal fluid, fasted), equilibrated 18 hours, read-out: Average solubility) | solubility at 18 h ([2]; FeSSIF (simulated intestinal fluid, fed), equilibrated 18 hours, read-out: Average solubility) | solubility at 18 h ([2]; SGF (simulated gastric fluid), equilibrated 18 hours, read-out: Average solubility) | solubility at 18 h ([2]; Water, equilibrated 18 hours, read-out: Average solubility) | solubility at 18 h ([2]; water, SGF, FaSSIF and FeSSIF, range over media, read-out: solubility in water and in simulated gastro-intestinal fluid) | Compound | Cure rate (clonorchis sinensis; [3]) | Mean recovery rate of worms (clonorchis sinensis; [3]) | No. of Cured animal (clonorchis sinensis; 100 mg/kg gavage twice a day for two days, 14 animals, worms recovered 7 days after treatment) | No. of Average of recovered worm, X ± SD (clonorchis sinensis; 100 mg/kg gavage twice a day for two days, worms from bile ducts) | worm body in rat feces (clonorchis sinensis; treatment group) | effect on schistosoma japonicum worms (schistosoma japonicum; in vitro culture)
1 | 3572 ± 1793 ng·h/mL | 3132 ± 1440 ng/mL | 15 min | ⅕ | 8 ± 4 nM | 302 µg/mL | 433 µg/mL | 303 µg/mL | 305 µg/mL |  |  |  |  |  | O=C(C1CCCCC1)N1CC(=O)N2CCc3ccccc3[C@@H]2C1 [(R)-praziquantel crystal form, (R)-praziquantel] | 100% | 0% | 14 | 0 | no worm body found | induce contraction and paralysis
2 |  |  |  |  | 42 ± 18 nM |  |  |  |  | 193 µg/mL (≈ 618 µM) | 313 µg/mL (≈ 1000 µM) | 192 µg/mL (≈ 615 µM) | 199 µg/mL (≈ 637 µM) | 190 to 310 µg/mL (≈ 608 to 992 µM) | O=C(C1CCCCC1)N1CC(=O)N2CCc3ccccc3C2C1 (racemic) [Praziquantel crystal form, praziquantel] |  |  |  |  |  | induce contraction and paralysis
